The source of these data is patent publication US9777005B2 (Takeda Pharmaceutical Company Limited, priority 2012, dated 2017).

Counter-ions that a name gives are not always drawn.

The target of this experiment is T1, human M1 receptor (hCHRM1) (Homo sapiens, UniProt P11229).
T1 construct: expressed in transfected cells; host or cells: CHO-K1
T1 sequence (P11229 1-460): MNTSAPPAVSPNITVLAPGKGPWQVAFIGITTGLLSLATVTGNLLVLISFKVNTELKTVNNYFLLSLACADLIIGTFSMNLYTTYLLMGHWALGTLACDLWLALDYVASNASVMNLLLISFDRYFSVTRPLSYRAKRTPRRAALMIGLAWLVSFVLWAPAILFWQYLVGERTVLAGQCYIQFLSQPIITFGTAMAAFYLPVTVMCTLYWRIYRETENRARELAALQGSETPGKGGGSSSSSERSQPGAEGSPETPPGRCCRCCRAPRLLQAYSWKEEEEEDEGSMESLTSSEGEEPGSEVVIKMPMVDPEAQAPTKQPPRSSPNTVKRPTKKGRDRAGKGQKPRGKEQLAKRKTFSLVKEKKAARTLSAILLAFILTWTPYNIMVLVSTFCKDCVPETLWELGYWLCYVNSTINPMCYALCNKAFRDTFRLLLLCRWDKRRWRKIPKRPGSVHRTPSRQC
In words: Measurement of M1 receptor positive allosteric modulator (M1PAM) activity, calcium fluorescence (FLIPRtetra) in CHO-K1 cells in the presence of acetylcholine at EC20. It is filed as cell-based. To be noted: in the presence of acetylcholine at EC20 (final 0.6 nM), CHO-K1 cells expressing hCHRM1; for EC50: inflection point of M1PAM activity, read-out: IP value; for activity (%) at 10 μM: test compound 10 μM. As for the experimental part:
Measurement of M1 Receptor Positive Allosteric Modulator (M1PAM) Activity
The activity of a test compound in the presence of acetylcholine at EC20 concentration (final concentration 0.6 nM), which affords an action corresponding to 20% of the maximum activity, was measured as PAM activity. The method is as follows. CHO-K1 cells forcibly expressing a human M1 receptor (hCHRM1) were plated on a 384-well black clear bottom plate (BD Falcon) at 5,000 cells/well, and cultured in an incubator at 37° C., 5% CO2 for 1 day. The medium in the cell plate was removed, and assay buffer A (Recording medium (DOJINDO LABORATORIES), 0.1% BSA (Wako Pure Chemical Industries, Ltd.), 2.5 μg/mL Fluo-4 AM (DOJINDO LABORATORIES), 0.08% Pluronic F127 (DOJINDO LABORATORIES), 1.25 mM probenecid (DOJINDO LABORATORIES)) containing a calcium indicator was added at 30 μL/well. The cells were left standing in the incubator at 37° C., 5% CO2 for 30 min, and further left standing at room temperature for 30 min. A test compound prepared by diluting with assay buffer B (HBSS (Invitrogen), 20 mM HEPES (Invitrogen), 0.1% BSA) containing 2.4 nM acetylcholine was added at 10 μL/well, and the fluorescence was measured by FLIPRtetra (Molecular Devices) for 1 min every 1 second. With the definition that the amount of change in the fluorescence on addition of acetylcholine (final concentration 1 μM) is 100% and that on addition of DMSO instead of a test compound is 0%, the activity (%) of the test compound and the inflection point in the concentration-dependent curve of the test compound were calculated as IP values.

Take `Cn1ccc(-c2ccc(CN3Cc4cccc(O[C@H]5CCCC[C@@H]5O)c4C3=O)cc2)n1` (relative stereo) [Example 35, 7-((trans-2-hydroxycyclohexyl)oxy)-2-(4-(1-methyl-1H-pyrazol-3-yl)benzyl)isoindolin-1-one]: the EC50 was 14 nM and the “activity (%) at 10 μM” value came to 134%.
For `Cc1ccc(Oc2nccc3c2C(=O)N(Cc2ccc(-n4cnc(C)c4)cc2)C3)c(F)c1` [Example 427, 4-(2-fluoro-4-methylphenoxy)-2-(4-(4-methyl-1H-imidazol-1-yl)benzyl)-1,2-dihydro-3H-pyrrolo[3,4-c]pyridin-3-one], in that order: 31 nM and 111%.
On to `Cn1cc(-c2ccc(CN3Cc4cccc(OCC5CCCO5)c4C3=O)cc2)cn1` (centres unmarked) [Example 5, 2-(4-(1-methyl-1H-pyrazol-4-yl)benzyl)-7-((tetrahydrofuran-2-yl)methoxy)isoindolin-1-one], for which the EC50 was found to be 20 nM and the “activity (%) at 10 μM” value worked out at 102%.
For the compound `O=C1c2c(cccc2O[C@H]2CCC[C@@H]2O)CN1Cc1ccc(-n2cccn2)cc1` (relative stereo) [Example 54, 2-(4-(1H-pyrazol-1-yl)benzyl)-7-((trans-2-hydroxycyclopentyl)oxy)isoindolin-1-one], the EC50 came to 160 nM and the “activity (%) at 10 μM” value is 106%.
For `Cn1cc(-c2ccc(CN3Cc4cccc(Oc5cccnc5C#N)c4C3=O)cc2)cn1` [Example 20, 3-((2-(4-(1-methyl-1H-pyrazol-4-yl)benzyl)-3-oxo-2,3-dihydro-1H-isoindol-4-yl)oxy)pyridine-2-carbonitrile] the same measures were 80 nM and 100%.
For `O=C1c2c(ncnc2Oc2c(F)cc(F)cc2F)CN1Cc1ccc(-c2ccnnc2)cc1` [Example 369, 6-(4-(pyridazin-4-yl)benzyl)-4-(2,4,6-trifluorophenoxy)-6,7-dihydro-5H-pyrrolo[3,4-d]pyrimidin-5-one] the same measures were 54 nM and 103%.
For `Cn1cc(-c2ccc(CN3Cc4ccnc(Oc5cc(CC#N)ccc5F)c4C3=O)cc2)cn1` [Example 406, (4-fluoro-3-((2-(4-(1-methyl-1H-pyrazol-4-yl)benzyl)-3-oxo-2,3-dihydro-1H-pyrrolo[3,4-c]pyridin-4-yl)oxy)phenyl)acetonitrile] the same measures were 40 nM and 97%.
Take `O=C1c2c(OCC3CCCO3)ccnc2CN1Cc1ccc(-n2cccn2)cc1` (centres unmarked) [Example 60, 6-(4-(1H-pyrazol-1-yl)benzyl)-4-((tetrahydrofuran-2-yl)methoxy)-6,7-dihydro-5H-pyrrolo[3,4-b]pyridin-5-one]: the EC50 was 320 nM and the “activity (%) at 10 μM” value is listed as 115%.
On to “1,5-anhydro-2-deoxy-3-O-(3-oxo-2-(4-(1H-pyrazol-1-yl)benzyl)-2,3-dihydro-1H-isoindol-4-yl)-threo-pentitol [Example 239]”, for which the EC50 turned out to be 6.1 nM and the “activity (%) at 10 μM” value turned out to be 109%.
For `Cc1n[nH]c(C)c1Oc1cccc2c1C(=O)N(Cc1ccc(-c3cnn(C)c3)cc1)C2` [Example 22, 7-((3,5-dimethyl-1H-pyrazol-4-yl)oxy)-2-(4-(1-methyl-1H-pyrazol-4-yl)benzyl)isoindolin-1-one], in that order: 190 nM and 103%.
For `NC(=O)c1ccc(CN2Cc3ccnc(Oc4ccc(C5CC5)cc4F)c3C2=O)cc1` [Example 448, 4-((4-(4-cyclopropyl-2-fluorophenoxy)-3-oxo-1,3-dihydro-2H-pyrrolo[3,4-c]pyridin-2-yl)methyl)benzamide] the same measures were 6.1 nM and 102%.
For `Cn1cc(-c2ccc(CN3Cc4cccc(Oc5c(F)cccc5C#N)c4C3=O)cn2)cn1` [Example 65, 3-fluoro-2-((2-((6-(1-methyl-1H-pyrazol-4-yl)pyridin-3-yl)methyl)-3-oxo-2,3-dihydro-1H-isoindol-4-yl)oxy)benzonitrile], in that order: 63 nM and 76%.
In the case of `Cn1cc(-c2ccc(CN3Cc4cccc(OCC(=O)N5CCCCC5)c4C3=O)cc2)cn1` [Example 16, 2-(4-(1-methyl-1H-pyrazol-4-yl)benzyl)-7-(2-oxo-2-(piperidin-1-yl)ethoxy)isoindolin-1-one], the EC50 was determined as 47 nM and the “activity (%) at 10 μM” value came to 106%.
As for `COc1cccc(F)c1Oc1nccc2c1C(=O)N(Cc1ccc(-c3cnn(C)c3)cc1)C2` [Example 360, 4-(2-fluoro-6-methoxyphenoxy)-2-(4-(1-methyl-1H-pyrazol-4-yl)benzyl)-1,2-dihydro-3H-pyrrolo[3,4-c]pyridin-3-one], the EC50 was found to be 72 nM and the “activity (%) at 10 μM” value is listed as 105%.
For `Cc1nn(C)cc1-c1ccc(CN2Cc3ccnc(OCC4CCCO4)c3C2=O)c(F)c1` (centres unmarked) [Example 229, 2-(4-(1,3-dimethyl-1H-pyrazol-4-yl)-2-fluorobenzyl)-4-((tetrahydrofuran-2-yl)methoxy)-1,2-dihydro-3H-pyrrolo[3,4-c]pyridin-3-one] the same measures were 6.1 nM and 117%.
For `Cc1cc(-c2ccc(CN3Cc4cccc(OCC5CCCO5)c4C3=O)cc2)ccn1.Cl` (centres unmarked) [Example 353, 2-(4-(2-methylpyridin-4-yl)benzyl)-7-((tetrahydrofuran-2-yl)methoxy)isoindolin-1-one hydrochloride], in that order: 46 nM and 97%.
For `CNC(=O)c1ccc(CN2Cc3ccnc(Oc4ccc(C(F)(F)F)cc4F)c3C2=O)cc1` [Example 431, 4-((4-(2-fluoro-4-(trifluoromethyl)phenoxy)-3-oxo-1,3-dihydro-2H-pyrrolo[3,4-c]pyridin-2-yl)methyl)-N-methylbenzamide] the same measures were 6.8 nM and 103%.
As to `Cc1cc(-c2ccc(CN3Cc4ccnc(O[C@H]5CCC[C@@H]5O)c4C3=O)cc2)ccn1` (relative stereo) [Example 76, 4-((trans-2-hydroxycyclopentyl)oxy)-2-(4-(2-methylpyridin-4-yl)benzyl)-1,2-dihydro-3H-pyrrolo[3,4-c]pyridin-3-one], the EC50 was 7.2 nM and the “activity (%) at 10 μM” value is recorded as 108%.
For `Cc1cc(-c2ccc(CN3Cc4cccc(OCC5CCCO5)c4C3=O)cc2)cnn1` (centres unmarked) [Example 356, 2-(4-(6-methylpyridazin-4-yl)benzyl)-7-((tetrahydrofuran-2-yl)methoxy)isoindolin-1-one] the same measures were 49 nM and 101%.
For `NC(=O)c1ccc(CN2Cc3ccnc(Oc4ccc(C(F)(F)F)cc4F)c3C2=O)cc1F` [Example 438, 2-fluoro-4-((4-(2-fluoro-4-(trifluoromethyl)phenoxy)-3-oxo-1,3-dihydro-2H-pyrrolo[3,4-c]pyridin-2-yl)methyl)benzamide] the same measures were 14 nM and 101%.
Consider `Cc1cc(-c2ccc(CN3Cc4ccnc(O[C@@H]5CCC[C@H]5O)c4C3=O)cc2)ccn1` (single isomer, unassigned) [Example 258, 4-((trans-2-hydroxycyclopentyl)oxy)-2-(4-(2-methylpyridin-4-yl)benzyl)-1,2-dihydro-3H-pyrrolo[3,4-c]pyridin-3-one hydrochloride], for which the EC50 worked out at 5.7 nM. For the same compound, the “activity (%) at 10 μM” value (hydrochloride) is 107%.
`Cc1nn(C)cc1-c1ccc(CN2Cc3ccnc(O[C@@H]4CCC[C@H]4O)c3C2=O)cc1` (single isomer, unassigned) [Example 256, 2-(4-(1,3-dimethyl-1H-pyrazol-4-yl)benzyl)-4-((trans-2-hydroxycyclopentyl)oxy)-1,2-dihydro-3H-pyrrolo[3,4-c]pyridin-3-one]: the EC50 was 4 nM and the “activity (%) at 10 μM” value is listed as 101%.
